According to article PMC7700651 (International Journal of Molecular Sciences, 2020):
Bridge positions count the residues as written; N and C are the ends. Peptide text beside a SMILES is read from it.

T1: BTLA/HVEM complex (Homo sapiens, UniProt Q92956)
T1 construct: His; purchased ACROBiosystems (HVEM-His); Novoprotein (BTLA-Fc) #HVM-H52E9; #CD06
T1 sequence (Q92956 39-202 limits assumed): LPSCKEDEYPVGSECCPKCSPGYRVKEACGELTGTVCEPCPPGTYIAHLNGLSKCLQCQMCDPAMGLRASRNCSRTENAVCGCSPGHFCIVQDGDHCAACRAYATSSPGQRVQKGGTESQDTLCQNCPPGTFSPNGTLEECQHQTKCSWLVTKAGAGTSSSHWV

T2: BTLA/HVEM complex (Homo sapiens, UniProt Q92956)
T2 construct: expressed in transfected cells; host or cells: Jurkat JE6.1 NFκB-eGFP reporter cells (HVEM); T cell stimulator cells from mouse thymoma BW5147 (BTLA)
T2 sequence (Q92956 39-283): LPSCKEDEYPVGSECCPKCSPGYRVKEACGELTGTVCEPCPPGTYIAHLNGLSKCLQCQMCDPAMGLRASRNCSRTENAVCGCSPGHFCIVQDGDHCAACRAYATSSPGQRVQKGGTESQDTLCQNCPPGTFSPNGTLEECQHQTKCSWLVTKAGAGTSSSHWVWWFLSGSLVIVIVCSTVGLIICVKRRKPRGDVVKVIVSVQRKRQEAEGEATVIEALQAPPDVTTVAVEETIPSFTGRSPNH

T3: recombinant human HVEM with His tag (human, UniProt Q92956 39-202)
T3 construct: also called HVEM-His; herpesvirus entry mediator; source: bought: ACROBiosystems (#HVM-H52E9)
T3 sequence (looked up): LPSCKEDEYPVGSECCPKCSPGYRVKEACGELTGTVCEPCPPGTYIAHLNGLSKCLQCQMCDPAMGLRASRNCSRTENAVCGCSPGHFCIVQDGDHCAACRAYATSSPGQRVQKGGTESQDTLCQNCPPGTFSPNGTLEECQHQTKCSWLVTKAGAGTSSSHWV


Key:
[1] = target: T1, BTLA/HVEM complex; experiment: ELISA, inhibition of BTLA/HVEM complex formation; format: biochemical; settings: peptides 1.5 to 0.375 mg/mL, 24 h, 37 °C; HVEM-His coated; BTLA-Fc 5 μg/mL
Protocol: ELISA tests were performed to check the inhibitory properties of the peptides. HVEM protein was first immobilized in microplates and then the peptides were added in three different concentrations and incubated with HVEM. Unbound peptides were then removed and BTLA-Fc protein was added. For the detection of BTLA-Fc protein, a goat anti-human IgG (H+L)-HRP conjugate and TMB (3,3’,5,5’-tetramethylbenzidine) were applied. As a positive control, anti-HVEM antibodies, which inhibit the BTLA/HVEM complex formation by about 50%, were used (Figure 3A and Figure S3). […] The inhibitory properties of the peptides were also studied for the complex HVEM/LIGHT, using the same procedure and conditions as described above, but with the application of LIGHT protein instead of BTLA protein. A significant increase in inhibitory properties was observed only for the anti-HVEM antibodies (positive control), which inhibited the HVEM/LIGHT binding by about 75% (Figure 3B and Figure S3). None of the tested peptides inhibited the formation of the LIGHT/HVEM complex (Figure 3B).
A 96-well Immunograde plate (Brand, Wertheim, Germany) was coated with 5 μg/mL of recombinant HVEM-His protein in PBS (100 μL/well) and incubated overnight at 4 °C. The plate was washed 5 times (200 μL/well) with PBS-T (5 mM Na2HPO4, 150 mM NaCl with the addition of 0.3 M NaCl and 0.05% Tween-20, pH 7.4) and blocked with 5% BSA in PBS-T for 2 h at 37 °C. The peptides were then titrated in triplicate from 1.5 to 0.375 mg/mL (100 µL/well) in PBS-T and incubated for 24 h at 37 °C. Maximum binding of HVEM to BTLA/LIGHT was determined by adding PBS-T to negative control wells, whereas maximum inhibition was measured by adding anti-HVEM (1 µg/well). The plate was then washed and incubated with recombinant BTLA-Fc/LIGHT-Fc protein at 5 μg/mL in PBS-T (100 μL/well) for 2 h at 37 °C. Goat anti-human IgG (H+L)-HRP conjugate (Bio-Rad, Hercules, CA, USA) antibody was then added (1:3000; 100 μL/well) and incubated for 1 h at 37 °C. Finally, BTLA-Fc/LIGHT-Fc was detected by the addition of 100 μL/well of TMB (Thermo Scientific, Waltham, MA, USA). Absorbance was measured using Infinite M200 Pro (Tecan Life Sciences, Männedorf, Switzerland) at 650 nm and 492 nm. […] ELISA tests were performed at least in triplicate. The data are presented as mean ± standard deviation (SD). The results were analyzed by one-way analysis of variance (ANOVA) followed by Dunnett’s post-hoc test using GraphPad Prism (San Diego, CA, USA).

[2] = target: T2, BTLA/HVEM complex; experiment: Cell-based reporter assay (HVEM-expressing Jurkat NFκB-eGFP reporter cells stimulated with TCS-BTLA); settings: 1.5 mg/mL; reporter cells pre-incubated 30 min with peptide, then TCS-BTLA 24 h; flow cytometry; three experiments in duplicate
From the text: To assess the capacities of the gD peptides to interfere with the BTLA/HVEM complex in a functional in vitro setting, reporter cells (NFκB-eGFP), which are based on the human Jurkat T cell line JE6.1 were transduced to express HVEM [34]. These reporter cells can be stimulated by T cell stimulator cells (TCS) expressing a membrane-bound anti-CD3 antibody fragment, which is able to engage the TCR-CD3 complex and thereby activate the NFκB pathway. In addition, to control TCS, TCS expressing the corresponding co-stimulatory ligand BTLA were generated in order to trigger HVEM in trans on the reporter cells (Figure S4). To validate the HVEM reporter system, control, and HVEM - expressing reporter cells were stimulated with control TCS and TCS expressing BTLA (Figure S4). Engagement of BTLA with HVEM induced high expression of NFκB-eGFP. To determine the inhibitory properties of the gD peptides, HVEM reporter cells were pre-incubated with the indicated peptides at different concentrations, followed by stimulation with control TCS or TCS-BTLA (Figure 4).
Figure 4 The inhibitory function of the peptides in a reporter cell-based assay. HVEM reporter cells were stimulated with TCS expressing BTLA in the absence or presence of the indicated gD peptides at concentrations of 1.5 mg/mL, 750 μg/mL, and 375 μg/mL. Reporter gene expression (NFκB-eGFP), upon stimulation with TCS-BTLA, was normalized to reporter activation after stimulation with TCS control in the presence of the respective peptides. BTLA/HVEM stimulation in the absence of peptides was set to 100% activation. Results are shown for three experiments performed independently in duplicate. Data are depicted as mean with SEM. * indicates statistically significant differences compared to full activation (100%), two-way ANOVA followed by Bonferroni’s post hoc test; p < 0.0001.
For functional assays, HVEM-expressing reporter cells (5 × 10^4 cells/well) were pre-incubated with different concentrations of gD peptides for 30 min in a 96 flat bottom plate. Control TCS or TCS expressing BTLA (2 × 10^4 cells/well) were subsequently added for 24 h at 37 °C with 5% CO2. After 24 h, the cells were harvested and stained with an mCD45.2 antibody to exclude TCS from the reporter cells. Expression of the reporter gene (eGFP) was then measured via flow cytometry. The mean and standard deviation of the gMFI of the viable population of reporter cells (mCD45.2+ stimulator cells were excluded) were determined. Each experiment was performed in duplicate.

[3] = Stability of peptides in cell culture medium (RPMI1640 with 10% FCS), RP-HPLC; format: in vitro ADME; settings: 37 °C, at least triplicate
From the text: A low stability in solution, which could be connected with many different processes such as aggregation, conformation changes, and chemical degradation, including deamidation and isomerization, oxidation, hydrolysis, and racemization, is a major concern for the therapeutic application of peptides. For the presented study, the stability of the peptides in PBS buffer and medium (solutions used in tests described above) was studied and determined using RP-HPLC. The analysis was done by comparing the area under the peaks in a control sample (peptide dissolved in water, time = 0) and a sample after incubation in PBS or medium.
200 µL of medium (RPMI1640 with 10% FCS)/human plasma was added to 50 µL of each peptide (1 mg/mL). The samples were incubated for different times (0, 2, 3, 6, and 24 h) at 37 °C. They were then precipitated by the addition 1 mL of absolute ethanol, incubated on ice for 15 min and centrifuged at 18,000 rpm for 20 min at 4 °C. The supernatants were collected and dried under vacuum. The samples were then resuspended in 120 µL of 0.1% TFA and analyzed by RP-HPLC under the same conditions as described for the determination of the stability of the peptides in PBS. All stability tests were performed at least in triplicate. Blood was obtained from donor volunteers and centrifuged in lithium/heparin tubes. EDTA was used as an anticoagulant.

[4] = target: T4, HVEM protein (Homo sapiens, UniProt Q92956); experiment: Affinity test: peptide on microcolumn with immobilized HVEM, fractions analysed by mass spectrometry; format: binding; settings: for Interaction with HVEM protein in affinity test: microcolumn with immobilized HVEM, presence in elution fraction by mass spectrometry
T4 construct: His; purchased ACROBiosystems #HVM-H52E9
Protocol: Affinity tests were performed to confirm the interaction of the designed peptides with HVEM protein. The peptide was added to a microcolumn with immobilized HVEM protein, and binding was checked using mass spectrometry, according to a procedure described earlier.
The affinity tests were performed according to the procedure described in our previous paper. The MS spectrums were registered using a MALDI-TOF/TOF autoflex maX (Bruker, Billerica, MA, USA) mass spectrometer.

[5] = target: T3, recombinant human HVEM with His tag; experiment: affinity purification with mass spectrometry; HVEM protein immobilised in a microcolumn; peptide added; supernatant, last wash and elution fractions analysed by MALDI-TOF/TOF MS; procedure of ref. 33; settings: both partners purified

Molecule	Inhibitory properties for BTLA/HVEM complex formation (ELISA), in words [1]	Capacity to interfere with BTLA/HVEM complex (reduction of NFκB-eGFP activation), in words [2]	Stability in medium (and PBS), in words ([3]; up to 24 h)	Interaction with HVEM protein in affinity test [4]	metabolised at 24 h, 0.2 mg/mL ([3]; cell culture medium (RPMI1640 with 10% FCS), 200 µL + 50 µL peptide 1 mg/mL, 24 h, ethanol precipitation, read-out: Degradation in medium after 24 h) [%]	Elution [M+H]+ (signal in elution fraction = binding to immobilized HVEM) ([4]; MALDI-TOF MS of elution fraction, binding confirmed if m/z signal present in elution and none in last wash, '-' = no signal)	binding result [5]
CSCC[C@@H]1NC(=O)[C@H](CC(=O)O)NC(=O)[C@H](CC(C)C)NC(=O)[C@H](CC(C)C)NC(=O)[C@H](CC(=O)O)NC(=O)[C@H](C(C)C)NC(=O)[C@H](C)NC(=O)[C@H](C(C)C)NC(=O)CNC(=O)[C@H](CC(=O)O)NC(=O)[C@@H](NC(=O)CNC(=O)[C@H](CCCCN)NC(=O)[C@H](CO)NC(=O)[C@H](C)NC(=O)[C@H](CCCNC(=N)N)NC(=O)[C@H](CC(C)C)NC(=O)[C@@H]2CCCN2C(=O)[C@H](CCCNC(=N)N)NC(=O)[C@H](CC(=O)O)NC(C)=O)CSSC[C@@H](C(=O)N[C@@H](CC(C)C)C(=O)N[C@H](C(=O)N[C@@H](CC(C)C)C(=O)N[C@@H](CC(=O)O)C(=O)N[C@@H](Cc2ccccc2)C(=O)N[C@@H](C)C(=O)N[C@@H](CCCNC(=N)N)C(N)=O)C(C)C)NC(=O)[C@@H]2CCCN2C(=O)[C@H](CC(N)=O)NC(=O)[C@H](CCCCN)NC(=O)[C@H](CCC(N)=O)NC(=O)[C@H](CCCNC(=N)N)NC(=O)[C@@H]2CCCN2C(=O)[C@H](Cc2ccc(O)cc2)NC(=O)[C@@H]2CCCN2C1=O [gD(1-36)(K10C-T29C)^SCR, reference compound] (Ac-DRPLRASKGCDGVAVDLLDMPYPRQKNPCLVLDFAR-NH2; disulfide 10-29)	no effect	weak blocking effect	–	–	–	–	–
Ac-ASLKMADPN-NH2 [gD(7-15)]	do not inhibit BTLA/HVEM complex formation	no effect	almost completely degraded	do not interact with HVEM protein	–	–	–
CSCC[C@H](NC(=O)[C@H](CCCCN)NC(=O)[C@H](CC(C)C)NC(=O)[C@H](CO)NC(=O)[C@H](C)NC(=O)[C@H](CC(=O)O)NC(=O)[C@@H](NC(=O)[C@H](CC(C)C)NC(=O)[C@H](C)NC(=O)[C@H](Cc1ccc(O)cc1)NC(=O)[C@H](CCCCN)NC(C)=O)C(C)C)C(=O)N[C@@H](C)C(=O)N[C@@H](CC(=O)O)C(=O)N1CCC[C@H]1C(=O)N[C@@H](CC(N)=O)C(=O)N[C@@H](CCCNC(=N)N)C(=O)N[C@@H](Cc1ccccc1)C(=O)N[C@@H](CCCNC(=N)N)C(=O)NCC(=O)N[C@@H](CCCCN)C(=O)N[C@@H](CC(=O)O)C(=O)N[C@@H](CC(C)C)C(=O)N1CCC[C@H]1C(=O)N[C@H](C(=O)N[C@@H](CC(C)C)C(=O)N[C@@H](CC(=O)O)C(=O)N[C@@H](CCC(N)=O)C(=O)N[C@@H](CC(C)C)C(=O)N[C@H](C(=O)N[C@@H](CC(=O)O)C(=O)N1CCC[C@H]1C(=O)N1CCC[C@H]1C(=O)NCC(=O)N[C@H](C(=O)N[C@@H](CCCNC(=N)N)C(=O)N[C@@H](CCCNC(=N)N)C(N)=O)C(C)C)[C@@H](C)O)C(C)C [gD(1-36)]	did not prevent protein interaction	weak blocking effect	–	binds to HVEM	~50	4094.88	–
Ac-DQLTDPP-NH2 [gD(26-32)]	do not inhibit BTLA/HVEM complex formation	weak blocking effect	–	do not interact with HVEM protein	–	–	–
Ac-KYALVDASLKMADPNRFRGKDLPVLDQLTDPPGVRR-NH2 (source: synthetic peptide) [gD(1-36)]	–	–	–	–	–	–	binds
